Key:
[1] = target: T1, human acetylcholinesterase (hAChE) (Homo sapiens, UniProt P22303); assay: Estimation of IC50 values on hAChE (Ellman, 96-microwell plates); format: biochemical; conditions: room temperature, 0.1 M PBS pH 7.4; n = 3
T1 construct: purchased Sigma Aldrich; host or cells: HEK 93 cells (so in the source)
Protocol: (§1) Recombinant hAChE expressed in HEK 93 cells, a lyophilized powder (Sigma Aldrich, Mexico), was dissolved in TBSA/sodium azide 0.02% and then was stored in aliquots at −20 °C. Each aliquot was diluted as required in a solution of PBS 0.1M pH 7.4/BSA 0.01% on the day of the experiment.
The concentrations of test compounds that inhibited the hydrolysis of substrates by 50% (IC50) were determined by monitoring the effect of various concentrations of oxazolones in the assays on the inhibition values. To study the potency, the oxazolones with an inhibition greater than 50% were selected, taken from the screening test results at 300 μM. All the inhibition studies were performed at room temperature in 96-microwell plates using Multiskan FC 5111900 (Lab Systems, CA, USA). The DTNB was used for the measurement of hAChE activity. In total, 174 μL in 0.1 M PBS pH 7.4/0.01% BSA, containing 300 μM DTNB final concentration, 2 μL of test-compound solution, and 2 μL of hAChE solution (0.2 μM) were mixed. The reaction was then initiated by adding 2 μL acetylthiocholine (10 mM), and the plate was read immediately. The formation of yellow 2-nitro-5-tiobenzoico acid due to the reaction of DTNB with thiocholine monitored the enzymatic hydrolysis of acetylthiocholine. Measures were at a wavelength of 412 nm at room temperature after 1 min. The IC50 values were then calculated using the GraphPad Prism 6.0 software (San Diego, CA, USA). All data are shown as means of n = 3.

[2] = target: T1, human acetylcholinesterase (hAChE); assay: Kinetic determinations of reversible hAChE inhibition (Ellman assay); format: biochemical; conditions: for decrease in inhibition potency compared to (1): from Ki values; for Ki: room temperature, 0.1 M PBS pH 7.4, n = 3, read-out: Inhibition Constant (Ki); for Parameter α: α of Vmax and Km referred to control AChE activity, mixed model inhibition
Protocol: as §1
Reversible inhibition assays from all hAChE were measured using a spectrophotometric Ellman assay at room temperature in 0.1 M PBS pH 7.4, containing 0.01% BSA, containing DTNB 300 µM as a chromogen. The equilibrium dissociation constant (Ki) of the hAChE–oxazolone conjugate was determined using different substrate concentrations (s) ranging from 0.05 to 0.200 mM, and at least four different concentrations of the oxazolones (i) were applied at a given substrate concentration in order to obtain hAChE inhibition between 20% and 80% to establish the affinity for each hAChE–oxazolone conjugate combination. The enzyme activity (ν) was plotted versus the substrate concentration [S] analyzed by non-linear regression analysis (Michaelis–Menten plot); data were transformed into a double reciprocal Lineweaver–Burk plot. Plots 1/ν versus 1/[S] were generated by plotting the slope versus the oxazolone concentration and the ordinate versus the oxazolone concentration of the primary plot. The processing of experimental data to define the oxazolones affinity was performed by a linear regression analysis where the y-intercept determines the enzyme-inhibitor dissociation constants (Ki), while the x-intercept determines the enzyme-substrate dissociation constant (Ks). The equation was used assuming that the substrate, due to low substrate concentrations used in experiments, binds only to the catalytic site, while the inhibitor can bind to both sites, catalytic and peripheral. To determine the mechanism of inhibition, we used the dose-response curves fitted using the Mixed Model Inhibition by the constants Vmax and Km calculated from Michaelis–Menten kinetics that includes competitive, uncompetitive, and non-competitive inhibition as special cases. The GraphPad Prims 6.0 software, San Diego, CA, USA was used to calculate the kinetics. All data are shown as means of n = 3.

[3] = target: T1, human acetylcholinesterase (hAChE); assay: hAChE inhibitory screening (Ellman method); format: biochemical; conditions: n = 3
Protocol: as §1
The spectrophotometric method of Ellman was used to evaluate the inhibition of hAChE. The assay was carried out by double beam UV-Vis 6705 Janway spectrophotometer at room temperature, using optical polystyrene cuvettes of 1.0 cm path length (10 × 10 × 45 mm, 340–800 nm optical transparency). Each test compound was dissolved in ethanol. […] Aliquots of 970 μL of PBS 0.1 M pH 7.4/BSA 0.01% containing DTNB (300 μM) and 10 μL of hAChE (0.2 μM) were placed in the polystyrene cuvette. An amount of 10 μL of a stock solution to obtain a final concentration of 100 or 300 μM of the tested compound was added. In total, 10 μL of an aqueous solution of acetylthiocoline 10 mM was added to start the reaction. The absorbance of the sample by the generation of the yellow 5-nitro-2-tio-benzoic anion was recorded at 412 nm at room temperature after 1 min. As a control, an identical enzyme solution without the inhibitor was processed following the same protocol to determine 100% of enzyme activity. […] Each experiment was repeated at least in triplicate. The capacity of each compound to inhibit hAChE was expressed as percent inhibition calculated using Equation (1):(1) Inhibition(%)=Ac−Ai×100/Ac where Ac and Ai represent the change in the absorbance in the […], respectively.

[4] = system: male ICR mice; assay: Spatial working memory, modified Y-maze, scopolamine-induced amnesia; format: in vivo, mouse; conditions: for Percentage of unfamiliar arm exploration: n = 5
Protocol: (§2) The experimental protocols were submitted and approved by the Bioethics Committee of the Faculty of Medicine and Psychology, Autonomous University of Baja California University, Tijuana, México (Record No. 666/2021-2). To perform the in vivo cognitive test experiments, male ICR mice eight weeks of age were used. The animals were housed with access to water and food under a 12 h light and dark cycle, with controlled temperature and humidity.
(§3) To carry out the cognition experiments, we used the methods previously described in detail by Arunrungvichian K., et al., 2015, in which they produced pharmacological amnesia using scopolamine in a mouse model. […] All compounds were administered by intraperitoneal injection in a volume of 5 mL/kg. Saline solution was used for the vehicle group (SH).
We use the maze used in the spontaneous alternation tests except for the use of a partition to close one of three arms. Here, mice, throughout multiple arm entries, should tend to enter a less recently visited arm or an unfamiliar arm of the maze. The mice were injected with compound 1, SH, DZ, and scopolamine (1 h and 30 min) before starting experiments. Each mouse was placed at the end of one arm and allowed to move freely for 5 min to get familiar with the two open arms. All arms were opened after 30 min of resting to allow entering in all three arms. An entry was counted if mice accessed an arm at least 10 cm. The percentage of unfamiliar arm exploration was calculated as Equation (2):(2) Percentage of unfamiliar arm exploration=number of unfamiliar arm entry/number of all arms entry×100

[5] = system: male ICR mice; assay: Novel Object Recognition (NOR) test, scopolamine-induced amnesia; format: in vivo, mouse; conditions: for effect on episodic short-term memory (DI vs amnesic group): donepezil 1 mg/kg, oxazolone (1) 5, 10, 25 and 100 μmol/kg, i.p.; for Discrimination Index (DI): scopolamine-treated mice, n = 5, mean ± SE
Protocol: as §2, §3
We employed the Novel Object Recognition Test (NOR) to assess recognition memory, a valuable tool for evaluating cognitive impairment in rodents and testing the impact of new drugs on cognition. This test involves an open-field arena containing two distinct types of objects, each with unique colors and shapes for easy discrimination. The basis of this test lies in rodents’ natural inclination to spend more time exploring a new object compared to a familiar one, leading to the calculation of a Discrimination Index (DI).
The testing procedure unfolded as follows: On the first day, the mice were allowed to freely explore the open-field apparatus for 5 min to become accustomed to the environment. On the second day, oxazolone 1, DZ, and SH were administered 1 h prior, while SC was given 30 min before the acquisition trial. During this trial, the mice were introduced to the apparatus with two identical objects. After spending 10 min in their cages, one of the objects was replaced with a new one, and the mice were granted 5 min to explore these objects during the retention trial. We meticulously recorded the time the mice spent exploring each object, defined as when their noses approached within 3 cm or when they made contact with the objects. The DI was calculated as (TN – TF)/(TN + TF), with TN representing the exploration time of the new object and TF indicating the exploration time of the familiar object.

[6] = system: male ICR mice; assay: Y-maze spontaneous alternation test; format: in vivo, mouse; conditions: 1 h before, 8 min in Y-maze, n = 5, mean ± SE
Protocol: as §2, §3

T1 sequence (P22303 32-614): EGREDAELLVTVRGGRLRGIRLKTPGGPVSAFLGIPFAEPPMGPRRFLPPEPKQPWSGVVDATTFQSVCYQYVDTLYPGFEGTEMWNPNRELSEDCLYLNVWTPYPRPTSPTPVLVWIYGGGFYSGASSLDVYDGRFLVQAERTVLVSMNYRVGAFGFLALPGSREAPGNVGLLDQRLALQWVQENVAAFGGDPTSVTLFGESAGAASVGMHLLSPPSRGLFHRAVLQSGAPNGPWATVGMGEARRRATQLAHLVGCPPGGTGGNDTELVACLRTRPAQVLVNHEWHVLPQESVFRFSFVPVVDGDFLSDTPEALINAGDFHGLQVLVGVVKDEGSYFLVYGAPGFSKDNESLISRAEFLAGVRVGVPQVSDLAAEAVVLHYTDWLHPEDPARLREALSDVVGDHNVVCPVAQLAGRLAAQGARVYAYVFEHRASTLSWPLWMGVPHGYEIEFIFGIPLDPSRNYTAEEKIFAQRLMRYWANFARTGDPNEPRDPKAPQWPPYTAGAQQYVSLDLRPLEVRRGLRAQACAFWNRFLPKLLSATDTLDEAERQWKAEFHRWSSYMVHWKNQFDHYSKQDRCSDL

Compound | IC50 [1] | Mode of Inhibition [2] | Ki [2] | Parameter α [2] | further results
CC(=O)Oc1cccc(/C=C2N=C(/C=C/c3ccccc3)OC\2=O)c1O [Oxazolone 7, 2-hydroxy-3-((Z)-(5-oxo-2-((E)-styryl)oxazol-4(5H)-ylidene)methyl)phenyl acetate] | 37.1 ± 1.61 µM | Competitive | 67 ± 19 µM | 18.27 | decrease in inhibition potency compared to (1) [2]: roughly 33 fold
CC(=O)Oc1ccc(/C=C2N=C(/C=C/c3ccccc3)OC\2=O)cc1 [Oxazolone 6, 4-((Z)-(5-oxo-2-((E)-styryl)oxazol-4(5H)-ylidene)methyl)phenyl acetate] | 246 ± 51.2 µM | uncompetitive | 198 ± 49.5 µM | 0.006 | decrease in inhibition potency compared to (1) [2]: approximately 100 fold
O=C1OC(/C=C/c2ccccc2)=NC/1=C\c1ccc(Cl)cc1 [Oxazolone 3, 4-((Z)-4-chlorobenzylidene)-2-((E)-styryl)oxazol-5(4H)-one] | 89.3 ± 22.3 µM | Competitive | 98.4 ± 24 µM | >1000 | Inhibition (%) of hAChE ([3]; 100 μM compound): inactive; Inhibition (%) of hAChE ([3]; 300 μM compound): moderate inhibitory activity
COc1cc2c(cc1OC)C(=O)C(CC1CCN(Cc3ccccc3)CC1)C2 (centres unmarked) [Donepezil, donepezil, reference compound] | – | – | – | – | effect on cognitive decline induced by scopolamine (novel arm exploration) ([4]; 1 mg/kg i.p., p < 0.001 vs scopolamine group): notably reversed; effect on episodic short-term memory (DI vs amnesic group) [5]: substantially improved episodic short-term memory
Cc1ccc(/C=C2N=C(/C=C/c3ccccc3)OC\2=O)cc1 [Oxazolone 2, 4-((Z)-4-methylbenzylidene)-2-((E)-styryl)oxazol-5(4H)-one] | 95.5 ± 1.47 µM | Competitive | 108 ± 7.77 µM | 4.98 | –
O=C1OC(/C=C/c2ccccc2)=NC/1=C\c1ccccc1 [Oxazolone 1, 4-((Z)-benzylidene)-2-((E)-styryl)oxazol-5(4H)-one] | 9.2 ± 2.3 µM | Competitive | 2.08 ± 0.36 µM | 21.84 | Percentage of unfamiliar arm exploration ([4]; 25 μmol/kg i.p., scopolamine-treated mice, mean ± SE): 37.83 ± 0.7%; Percentage of unfamiliar arm exploration ([4]; 100 μmol/kg i.p., scopolamine-treated mice, mean ± SE): 48.30 ± 5.4%; locomotor activity, number of arm entries ([6]; 5 μmol/kg i.p.): 31.8 ± 2.1 entries; locomotor activity, number of arm entries ([6]; 50 μmol/kg i.p.): 34 ± 2.3 entries; Discrimination Index (DI) ([5]; 10 μmol/kg i.p.): 0.317 ± 0.051; Discrimination Index (DI) ([5]; 100 μmol/kg i.p.): 0.360 ± 0.056; effect on episodic short-term memory (DI vs amnesic group) [5]: substantially improved episodic short-term memory; inhibition at 100 µM ([3]; 100 μM compound): 61.3%
COc1ccc(/C=C2N=C(/C=C/c3ccccc3)OC\2=O)cc1 [Oxazolone 4, 4-((Z)-4-methoxybenzylidene)-2-((E)-styryl)oxazol-5(4H)-one] | 137 ± 34.2 µM | Competitive | 157 ± 46 µM | 4.16 | inhibition at 100 µM ([3]; 100 μM compound): 49%
CN1[C@@H]2C[C@@H](OC(=O)[C@H](CO)c3ccccc3)C[C@H]1[C@@H]1O[C@@H]12 [scopolamine, reference compound] | – | – | – | – | Percentage of unfamiliar arm exploration ([4]; scopolamine group, 1 mg/kg i.p. 30 min before): 28.58 ± 5%
CC(=O)Oc1cccc(/C=C2N=C(/C=C/c3ccccc3)OC\2=O)c1 [Oxazolone 5, 3-((Z)-(5-oxo-2-((E)-styryl)oxazol-4(5H)-ylidene)methyl)phenyl acetate] | 204 ± 39.7 µM | Non-competitive | 183 ± 46 µM | 1 | –
